Columns and labels:
Test in all cases: relative viability (nuclei count vs DMSO), 5 days (fraction); higher = more cells survive
[1] = compound: CC1=C(C(=NN1)C)CC2=C(C3=C(S2)N(C(=O)N(C3=O)C)CC(C)C)C(=O)N4C[C@@H](CO4)O
Procedure, shortened: (§1)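 Cells of lung cancer lines were placed in 1536-well plates and kept overnight at 37 °C. Pinning then delivered five library-drug doses (not always all listed), spaced by √10, onto plates anchored with vehicle, and the cells were left 5 days without changing medium. One step fixed, permeabilised and stained them with Hoechst, and MetaXpress counted nuclei in 4× images. Viability, as a median over plates, is treated-well nuclei divided by vehicle-well nuclei, with acceptance only at control CV below 25% and at least one doubling.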

[2] = compound: Cc1ccccc1C(C(=O)NC1CCCCC1)N(C(=O)Cn1ccnc1C)c1cccc(F)c1 [IDH-C35]
Procedure, shortened: as §1

[3] = compound: CC1=C(C(=NN1)C)CC2=C(C3=C(S2)N(C(=O)N(C3=O)C)CC(C)C)C(=O)N4C[C@@H](CO4)O + CC1(C)CCC(c2ccc(Cl)cc2)=C(CN2CCN(c3ccc(C(=O)NS(=O)(=O)c4ccc(N[C@H](CCN5CCOCC5)CSc5ccccc5)c(S(=O)(=O)C(F)(F)F)c4)cc3)CC2)C1 [Navitoclax] (partner 0.5 µM)
Procedure, shortened: (§2)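 Lung cancer cell lines were pin-tool dosed in 1536-well plates on the day after seeding, with either a lone drug or a fixed anchor-drug dose plus five library-drug doses (not always all listed) in √10 steps. Nuclei were counted on 4× images after 5 days. Relative viability is the ratio of treated-well to vehicle-well nuclei counts, with each value a median of duplicate plates.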

[4] = compound: CC1=C(C(=NN1)C)CC2=C(C3=C(S2)N(C(=O)N(C3=O)C)CC(C)C)C(=O)N4C[C@@H](CO4)O + COc1cc2c(Oc3ccc(NC(=O)C4(C(=O)Nc5ccc(F)cc5)CC4)cc3F)ccnc2cc1OCCCN1CCOCC1 [Foretinib] (partner 0.25 µM)
Procedure, shortened: as §2

Cell Line	relative viability ([1]; 0.0025 µM)	relative viability ([1]; 0.007906 µM)	relative viability ([1]; 0.025 µM)	relative viability ([1]; 0.07906 µM)	relative viability ([1]; 0.25 µM)	relative viability ([2]; 0.08 µM)	relative viability ([2]; 0.253 µM)	relative viability ([2]; 0.8 µM)	relative viability ([2]; 2.53 µM)	relative viability ([2]; 8 µM)	relative viability ([3]; first compound 0.0025 µM)	relative viability ([3]; first compound 0.007906 µM)	relative viability ([3]; first compound 0.025 µM)	relative viability ([3]; first compound 0.07906 µM)	relative viability ([3]; first compound 0.25 µM)	relative viability ([4]; first compound 0.0025 µM)	relative viability ([4]; first compound 0.007906 µM)	relative viability ([4]; first compound 0.025 µM)	relative viability ([4]; first compound 0.07906 µM)	relative viability ([4]; first compound 0.25 µM)
NCI-H1650	0.986	1.07	1.11	1.14	1.21	1.01	0.986	0.928	0.923	0.839	1.37	1.22	1.2	1.27	1.21	1.18	1.26	1.52	1.18	1.05
NCI-H1395	0.962	0.841	0.713	0.795	0.719	0.942	0.866	0.929	0.877	0.882	1.09	0.931	1.01	0.859	0.886	1.11	1.04	0.804	0.812	0.824
LU99A	0.968	0.995	0.887	1.03	0.893	1.04	0.992	0.895	0.919	0.964	0.74	0.887	0.76	0.845	0.458	0.901	0.943	0.766	0.768	0.747
NCI-H1355	1.08	1.03	0.994	0.993	0.952	0.978	0.971	0.961	0.915	0.944	0.955	0.96	1.02	0.853	0.894	1.04	1.11	1	1.02	1.12
HCC-78	1.08	1.14	0.845	0.91	0.832	0.925	0.979	0.896	0.998	0.928	0.834	0.743	0.868	0.716	0.768	0.579	0.572	0.601	0.527	0.563
HCC-15	1.04	1.03	1.01	1.04	1.12	1	0.97	0.956	–	0.925	0.735	0.725	0.712	0.698	0.675	1.05	0.989	0.961	1.03	1.2
EKVX	1.08	1.03	0.952	0.883	0.989	0.991	0.991	0.922	0.861	0.997	1	1.04	0.988	0.907	0.933	0.884	0.736	0.69	0.732	0.744
NCI-H2087	1.05	1.13	0.951	0.92	1.26	1.2	1.07	0.945	0.898	0.931	1.05	0.979	0.953	1.1	1.16	1.05	1.05	1.03	0.811	1.07
LK-2	1	1.03	0.818	0.804	0.898	0.881	0.995	0.996	0.998	0.943	0.884	0.852	0.746	0.983	0.949	1.04	1.12	0.981	0.928	1.16
NCI-H1437	1.05	0.981	0.953	0.996	0.991	1.04	1.02	0.993	0.995	0.959	1.16	1.2	1.08	1.1	1.09	1.26	1.29	1.18	1.3	1.24
COR-L23	0.965	1.08	0.919	0.933	0.976	1.1	1.08	1.01	0.995	0.978	0.783	0.984	0.777	0.781	0.845	0.947	1.07	0.8	0.87	0.846
NCI-H838	0.992	0.979	0.876	0.84	0.856	1.07	0.935	0.978	1.01	0.981	1.22	1.24	1.12	1.16	1.25	1.06	1.04	0.983	0.974	0.99
A549	1.04	1.11	0.931	0.953	1.04	1	0.966	0.956	0.918	0.974	1.32	1.27	1.14	1.32	1.24	1.03	1.02	0.906	1	1.1
A-427	1.04	1.1	0.996	1.05	1.1	1.06	1.01	0.926	0.991	1.03	1.01	0.948	0.889	0.886	1.16	1.29	1.22	0.937	1.11	1.14
LCLC-97TM1	1.05	1.13	0.98	0.957	1.02	0.807	1.03	0.936	–	0.91	0.394	0.613	0.404	0.373	0.467	0.97	1.01	0.935	0.775	0.934

— the supplement of paper PMC10307832
